# Tests used:
# [1] = tested on: T315I mutated BCR-ABL transcripts; assay: Peripheral blood BCR-ABL transcript levels by qRT-PCR and KD mutation analyses during omacetaxine therapy; format: in vivo, human
# Description: Presence of T315I is confirmed at study entry at one of two reference labs (University of Texas MD Anderson Cancer Center or University of Heidelberg, Medizinische Fakultat Mannheim).
# Peripheral blood BCR-ABL transcript levels are determined during omacetaxine therapy by quantitative real-time polymerase chain reaction (qRT-PCR) and BCR-ABL KD mutation analyses.
# IM-resistant T315I+CML = assay: Multicenter open-label phase 2/3 study of subcutaneous omacetaxine, efficacy; format: in vivo, human
# From the text: As used herein, a cytological response to treatment with cephalotaxine and/or TKI is a response that occurs in the bone marrow rather than just in the peripheral blood. There are at least three cytological responses: (1) a cytogenetic response (CR); (2) a major cytogenetic response (MCR); and a complete cytogenetic response (CCR). Determination of such responses is based on the measurement of the number of peripheral blood and/or bone marrow cells having a marker that is associated with a particular leukemia. Such markers include cell surface antigens, aberrant proteins, and genetic modifications. A cytogenetic response occurs if the number or percentage of cells with such a marker decreases during treatment. A major cytogenetic response occurs if the number or percentage of such cells falls below 35%. A complete cytogenetic response occurs when no cells containing the marker are detected. For example, CML is characterized by the Ph+ chromosome. A cytogenetic response has occurred if the number of Ph+ chromosomes decreases at all during treatment. If the Ph+ percentage drops to 35% or less, it is considered a major cytogenetic response; 0% Ph+ is a complete cytogenetic response.
# As used herein, a hematological response occurs when there is a change in the white blood cell count of a patient following treatment with cephalotaxine and/or TKI. The change in white blood cell count can be in the peripheral blood and the bone marrow although the change may be observed only in the peripheral blood. The response can be a partial reduction in white cell count or complete reduction to normal values (e.g. 10,000-12,000 cells […].)
# This example summarizes human clinical trials using HHT to treat patients with IM-resistant T315I+CML.
# (§1) A multicenter open-label phase 2/3 study evaluating safety and efficacy of omacetaxine administered subcutaneously (SC) in patients with IM-resistant T315I+CML in all phases of the disease is being conducted.
# (§2) Induction phase—1.25 mg/m2 twice daily SC for 14 consecutive days every 28 days until complete hematologic response (CHR) or hematologic improvement has been achieved.
# (§3) Maintenance therapy—1.25 mg/m2 twice daily SC for 7 days every 28 days for up to 24 months.
# (§4) Doses were adjusted to maintain adequate WBC and platelet control by increasing or decreasing the number of days of administration of omacetaxine.
# [2] = tested on: BCR-ABL-T315I-induced CML; assay: Mice with BCR-ABL-T315I-induced CML treated with HHT; format: in vivo
# Description: In FIG. 3A, the number of circulating leukemic cells (calculated as percentage of Gr-1+GFP+ cells×white blood cell count) in mice with BCR-ABL-T315I-induced CML treated with placebo or HHT was determined on day 14 after transplantation.
# Antibodies for Western Blot analysis against c-ABL, Mcl-1 and β-actin were purchased from Santa Cruz Biothechology (Santa Cruz, Calif.). Protein lysates were prepared by lysing cells in RIPA buffer and immunoprecipitation. The retroviral vector MSCV-IRES-eGFP carrying the BCR-ABL cDNA was used to make virus stock for bone marrow transduction/transplantation. Four- to 10-week-old wild-type BABL/c or C57BL/6 (The Jackson Laboratory) and homozygous SRC triple gene knockout (Lyn−/−Hck−/−Fgr−/−) mice were used for leukemogenesis experiments. HHT (ChemGenex Pharmaceuticals, Inc, CA) was dissolved in accompanying diluent to a stock concentration of 1 mg/ml. Further dilutions were made to working concentrations using media or water.
# The number of circulating leukemic cells (calculated as percentage of Gr-1+GFP+ cells×white blood cell count) in mice with BCR-ABL-T315I-induced CML treated with placebo or HHT (0.5 mg/kg) was determined on day 14 after transplantation.
# [3] = Phase 2/3 study of subcutaneous omacetaxine, safety and tolerability; format: in vivo, human
# Description: as §1, §2, §3, §4
# Includes all events considered related, probably related, possibly related, or with unknown relationship to omacetaxine treatment. Events listed in the table are included if occurrence was >5% of the total population (at least 1 of 23 patients).
# [4] = Accelerated Phase, N = 5, median (range)
# [5] = Chronic Phase, N = 20, median (range)
structure (smiles),measurement,setting,value
"COC(=O)C[C@](O)(CCCC(C)(C)O)C(=O)O[C@@H]1C(OC)=C[C@]23CCCN2CCc2cc4c(cc2[C@H]13)OCO4 [HHT, Homoharringtonine]",evaluable patients with T315I mutated BCR-ABL transcripts reduced below the detection level,[1]; 5/13 evaluable patients,38%
same,T315I mutated clone,[1]; CP patients (FIG. 8),rapidly and substantially reduced
same,patients in whom the T315I clone is reduced to below the limits of detection,[1]; chronic phase patients (FIG. 8),64%
same,T315I clone,[1]; heavily-pretreated patients with IM-resistant T315I+CML,complete elimination of the T315I clone in a number of heavily-pretreated patients
same,"Median Duration of Response, Cytogenetic Response Minimal","IM-resistant T315I+CML; Accelerated Phase, N = 5",2.3 Months
same,"Median Duration of Response, Hematologic Response HI","IM-resistant T315I+CML; Accelerated Phase, N = 5",2.8 Months
same,"Median Duration of Response, Hematologic Response CHR",IM-resistant T315I+CML; [4],9.6 (8.3-10.9+) Months
same,"Median Duration of Response, Hematologic Response RCP",IM-resistant T315I+CML; [4],2.0 (2.0-2.0+) Months
same,Complete Hematologic Response (CHR),"IM-resistant T315I+CML; Accelerated Phase, N = 11",2 (18) Number (%)
same,"Cytogenetic Response, Minimal","IM-resistant T315I+CML; Accelerated Phase, N = 11",1 (9) Number (%)
same,"Cytogenetic Response, Overall","IM-resistant T315I+CML; Accelerated Phase, N = 11",1 (9) Number (%)
same,Hematologic Improvement (HI),"IM-resistant T315I+CML; Accelerated Phase, N = 11",1 (9) Number (%)
same,"Hematologic Response, Overall","IM-resistant T315I+CML; Accelerated Phase, N = 11",5 (45) Number (%)
same,Return to Chronic Phase (RCP),"IM-resistant T315I+CML; Accelerated Phase, N = 11",2 (18) Number (%)
same,"Median Duration of Response, Hematologic Response RCP","IM-resistant T315I+CML; Blast Phase, N = 1",3.4 Months
same,"Hematologic Response, Overall","IM-resistant T315I+CML; Blast Phase, N = 8",1 (13) Number (%)
same,Return to Chronic Phase (RCP),"IM-resistant T315I+CML; Blast Phase, N = 8",1 (13) Number (%)
same,"Median Duration of Response, Cytogenetic Response Partial","IM-resistant T315I+CML; Chronic Phase, N = 20",4.2 Months
same,"Median Duration of Response, Cytogenetic Response Complete",IM-resistant T315I+CML; [5],4.8 (0.3-9.7+) Months
same,"Median Duration of Response, Cytogenetic Response Minimal",IM-resistant T315I+CML; [5],4.0 (3.9-20.8+) Months
same,"Median Duration of Response, Hematologic Response CHR",IM-resistant T315I+CML; [5],11.5 (3.5-25.4+) Months
same,Complete Hematologic Response (CHR),"IM-resistant T315I+CML; Chronic Phase, N = 25",20 (80) Number (%)
same,"Cytogenetic Response, Complete","IM-resistant T315I+CML; Chronic Phase, N = 25",4 (16) Number (%)
same,"Cytogenetic Response, Minimal","IM-resistant T315I+CML; Chronic Phase, N = 25",2 (8) Number (%)
same,"Cytogenetic Response, Overall","IM-resistant T315I+CML; Chronic Phase, N = 25",7 (28) Number (%)
same,"Cytogenetic Response, Partial","IM-resistant T315I+CML; Chronic Phase, N = 25",1 (4) Number (%)
same,"Hematologic Response, Overall","IM-resistant T315I+CML; Chronic Phase, N = 25",20 (80) Number (%)
same,"Molecular Response, Major","IM-resistant T315I+CML; Chronic Phase, N = 25",2 (8) Number (%)
same,"Cytogenetic Response, Major*","IM-resistant T315I+CML; Chronic Phase, N = 25, one complete and one partial cytogenetic response are unconfirmed",5 (20) Number (%)
same,progression free survival,"IM-resistant T315I+CML; accelerated phase (AP), after one year",25%
same,progression free survival,"IM-resistant T315I+CML; blast phase (BP), after 6 months",44%
same,progression free survival,"IM-resistant T315I+CML; chronic phase (CP), after 1 year",80%
same,progression free survival,"IM-resistant T315I+CML; chronic phase (CP), after 2 years",70%
same,duration of complete hematologic and cytogenetic responses,IM-resistant T315I+CML; in vivo,up to one year
same,survival,"[2]; BCR-ABL-T315I CML mice, HHT vs placebo",prolonged survival
same,number of circulating leukemic cells (percentage of Gr-1+GFP+ cells×white blood cell count),"[2]; HHT 0.5 mg/kg, day 14 after transplantation, vs placebo",significantly reduced
same,Treatment-Related Serious Adverse Events: Neutropenic Fever,[3]; Accelerated Phase,1 (9) Number (percent)
same,Treatment-Related Serious Adverse Events: Thrombocytopenia,[3]; Accelerated Phase,0 Number (percent)
same,Grade 3/4 Toxicities: Anemia,"[3]; Accelerated Phase, N = 5",2 (40) number (percent)
same,Grade 3/4 Toxicities: Diarrhea,"[3]; Accelerated Phase, N = 5",1 (20) number (percent)
same,Grade 3/4 Toxicities: Febrile neutropenia,"[3]; Accelerated Phase, N = 5",2 (40) number (percent)
same,Grade 3/4 Toxicities: Neutropenia,"[3]; Accelerated Phase, N = 5",2 (40) number (percent)
same,Grade 3/4 Toxicities: Pancytopenia,"[3]; Accelerated Phase, N = 5",2 (40) number (percent)
same,Grade 3/4 Toxicities: Thrombocytopenia,"[3]; Accelerated Phase, N = 5",3 (60) number (percent)
same,Treatment-Related Serious Adverse Events: Acute Coronary Syndrome*,"[3]; Accelerated Phase, N = 6",0 Number (percent)
same,Deaths on study,"[3]; BP patients with progressive disease, none considered related to the study drug",3 deaths
same,Grade 3/4 Toxicities: Anemia,"[3]; Blast Phase, N = 6",1 (17) number (percent)
same,Grade 3/4 Toxicities: Diarrhea,"[3]; Blast Phase, N = 6",1 (17) number (percent)
same,Grade 3/4 Toxicities: Febrile neutropenia,"[3]; Blast Phase, N = 6",2 (40) number (percent)
same,Grade 3/4 Toxicities: Neutropenia,"[3]; Blast Phase, N = 6",2 (33) number (percent)
same,Grade 3/4 Toxicities: Pancytopenia,"[3]; Blast Phase, N = 6",0 number (percent)
same,Grade 3/4 Toxicities: Thrombocytopenia,"[3]; Blast Phase, N = 6",1 (17) number (percent)
same,Treatment-Related Serious Adverse Events: Acute Coronary Syndrome*,"[3]; Blast Phase, N = 6",0 Number (percent)
same,Treatment-Related Serious Adverse Events: Neutropenic Fever,"[3]; Blast Phase, N = 6",1 (9) Number (percent)
same,Treatment-Related Serious Adverse Events: Thrombocytopenia,"[3]; Blast Phase, N = 6",0 Number (percent)
same,Grade 3/4 Toxicities: Anemia,"[3]; Chronic Phase, N = 12",7 (58) number (percent)
same,Grade 3/4 Toxicities: Diarrhea,"[3]; Chronic Phase, N = 12",2 (17) number (percent)
same,Grade 3/4 Toxicities: Febrile neutropenia,"[3]; Chronic Phase, N = 12",1 (9) number (percent)
same,Grade 3/4 Toxicities: Neutropenia,"[3]; Chronic Phase, N = 12",6 (50) number (percent)
same,Grade 3/4 Toxicities: Pancytopenia,"[3]; Chronic Phase, N = 12",1 (9) number (percent)
same,Grade 3/4 Toxicities: Thrombocytopenia,"[3]; Chronic Phase, N = 12",8 (67) number (percent)
same,Treatment-Related Serious Adverse Events: Neutropenic Fever,"[3]; Chronic Phase, N = 12",1 (9) Number (percent)
same,Treatment-Related Serious Adverse Events: Thrombocytopenia,"[3]; Chronic Phase, N = 12",1 (9) Number (percent)
same,Treatment-Related Serious Adverse Events: Acute Coronary Syndrome*,"[3]; Chronic Phase, N = 12, considered secondary to omacetaxine induced anemia",1 (9) Number (percent)
same,Grade 3/4 Toxicities: Anemia,"[3]; Total, N = 23",10 (43) number (percent)
same,Grade 3/4 Toxicities: Diarrhea,"[3]; Total, N = 23",4 (17) number (percent)
same,Grade 3/4 Toxicities: Febrile neutropenia,"[3]; Total, N = 23",5 (22) number (percent)
same,Grade 3/4 Toxicities: Neutropenia,"[3]; Total, N = 23",10 (43) number (percent)
same,Grade 3/4 Toxicities: Pancytopenia,"[3]; Total, N = 23",3 (13) number (percent)
same,Grade 3/4 Toxicities: Thrombocytopenia,"[3]; Total, N = 23",12 (52) number (percent)
same,Treatment-Related Serious Adverse Events: Acute Coronary Syndrome*,"[3]; Total, N = 23",1 (4) Number (percent)
same,Treatment-Related Serious Adverse Events: Neutropenic Fever,"[3]; Total, N = 23",3 (13) Number (percent)
same,Treatment-Related Serious Adverse Events: Thrombocytopenia,"[3]; Total, N = 23",1 (4) Number (percent)
same,"Grade 1/2 injection site erythema, patients",[3]; number (%) of patients,6 (23%)
same,"Grade 1/2 injection site pain, patients",[3]; number (%) of patients,3 (13%)
same,Dose delays,[3]; of induction cycles,75%
same,Dose delays,[3]; of maintenance cycles,80%
same,myelosuppression (most common side effect),[3]; subcutaneously administered,"usually transient and reversible, and rarely results in serious clinical complications"
same,tolerability,[3]; subcutaneously administered,generally well tolerated

# — patent US20090176759A1, “LEUKEMIC STEM CELL ABLATION” (ChemGenex Pharmaceuticals, Inc., priority 2007, published 2009)
